Reference: patent publication US20230172930A1, “USE OF COMPLEMENT FACTOR D INHIBITORS ALONE OR IN COMBINATION WITH ANTI-C5 ANTIBODIES FOR TREATMENT OF PAROXYSMAL NOCTURNAL HEMOGLOBINURIA” (Alexion Pharmaceuticals, Inc., priority 2020, published 2023)

Tested on: PNH patients with an inadequate response to eculizumab
Assay: Phase 2 open-label study of danicopan added to eculizumab: laboratory markers of PNH (Hgb, LDH, reticulocytes, bilirubin)
Assay type: in vivo, human
Conditions: for Direct bilirubin, mean / LDH, mean / Reticulocytes, mean / Total bilirubin, mean: all patients N=11
Method: All doses were taken approximately 15-30 minutes after completion of a meal or snack. Dose escalations, to a maximum of 200 mg three times a day, were based on safety and hemoglobin values and permitted at 4-week intervals through week 12 at 50 mg increments. If the patient had not already reached the 200 mg three times daily maximal dose by week 12, escalation was permitted if clinically indicated. […] Patients completing treatment with clinical benefit entered a long-term extension phase.
Descriptive statistics are provided for biochemical, quality-of-life measurements, and transfusion data. Continuous variables are summarized with mean, median, minimum and maximum values. Categorical variables, e.g., transfusion-independent, are summarized with counts and percentages. Missing values were not imputed.

[1] = Patient A, Baseline, before danicopan, on eculizumab 900 mg q14d
[2] = Patient A, Week 12, danicopan 150 mg TID + eculizumab 900 mg q14d
[3] = Patient A, Week 24, danicopan 150 mg TID + eculizumab 900 mg q14d
[4] = Patient B, Baseline, before danicopan, on eculizumab 1200 mg q14d
[5] = Patient B, Week 12, danicopan 100 mg TID + eculizumab 900 mg q14d
[6] = Patient B, Week 24, danicopan 100 mg TID + eculizumab 900 mg q14d
[7] = Patient C, Baseline, before danicopan, on eculizumab 900 mg q14d
[8] = Patient C, Week 12, danicopan 150 mg TID + eculizumab 900 mg q14d
[9] = Patient C, Week 24, danicopan 150 mg TID + eculizumab 900 mg q14d
[10] = Patient D, Baseline, before danicopan, on eculizumab 900 mg q14d
[11] = Patient D, Week 12, danicopan 150 mg TID + eculizumab 900 mg q14d
[12] = Patient D, Week 24, danicopan 150 mg TID + eculizumab 900 mg q14d
[13] = Patient E, Baseline, before danicopan, on eculizumab 1200 mg q14d
[14] = Patient E, Week 12, danicopan 150 mg TID + eculizumab 1200 mg q14d
[15] = Patient E, Week 24, danicopan 150 mg TID + eculizumab 1200 mg q14d
[16] = Patient F, Baseline, before danicopan, on eculizumab 900 mg q14d
[17] = Patient F, Week 12, danicopan 150 mg TID + eculizumab 900 mg q14d
[18] = Patient F, Week 24, danicopan 150 mg TID + eculizumab 900 mg q14d
[19] = Patient G, Baseline, before danicopan, on eculizumab 1500 mg q14d
[20] = Patient G, Week 12, danicopan 100 mg TID + eculizumab 1500 mg q14d
[21] = Patient G, Week 24, danicopan 100 mg TID + eculizumab 1500 mg q14d
[22] = Patient H, Baseline, before danicopan, on eculizumab 900 mg q14d
[23] = Patient H, Week 12, danicopan 200 mg TID + eculizumab 900 mg q14d
[24] = Patient H, Week 24, danicopan 200 mg TID + eculizumab 900 mg q14d
[25] = Patient I, Baseline, before danicopan, on eculizumab 900 mg q14d
[26] = Patient I, Week 12, danicopan 100 mg TID + eculizumab 900 mg q14d
[27] = Patient I, Week 24, danicopan 200 mg TID + eculizumab 900 mg q14d
[28] = Patient J, Baseline, before danicopan, on eculizumab 1200 mg q14d
[29] = Patient J, Week 12, danicopan 100 mg TID + eculizumab 1200 mg q14d
[30] = Patient J, Week 24, danicopan 200 mg TID + eculizumab 1200 mg q14d
[31] = Patient K, Baseline, before danicopan, on eculizumab 900 mg q14d
[32] = Patient K, Week 12, danicopan 100 mg TID + eculizumab 900 mg q14d
[33] = Patient K, Week 24, danicopan 150 mg TID + eculizumab 900 mg q14d
[34] = Baseline, before danicopan, on eculizumab
[35] = Week 24, danicopan 100-200 mg TID + eculizumab

Work on `CC(=O)c1nn(CC(=O)N2C[C@H](F)C[C@H]2C(=O)Nc2cccc(Br)n2)c2ccc(-c3cnc(C)nc3)cc12` [Danicopan, danicopan] yielded a Direct bilirubin [1] of 0.44 mg/dL, a Hgb [1] of 5.00 g/dL and an LDH [1] of 1.7 ×ULN. For the same molecule, the Reticulocytes [1] was 159 10^9/μL, the Total bilirubin [1] was 2.14 mg/dL and the Direct bilirubin [2] was 0.33 mg/dL. For the same molecule, the Hgb [2] was 7.70 g/dL, the LDH [2] was 1.2 ×ULN and the Reticulocytes [2] was 121 10^9/μL. For the same molecule, the Total bilirubin [2] was 1.80 mg/dL, the Direct bilirubin [3] was 0.48 mg/dL and the Hgb [3] was 8.50 g/dL. The LDH [3] was 1.1 ×ULN, the Reticulocytes [3] was 112 10^9/μL and the Total bilirubin [3] was 2.40 mg/dL. For the same molecule, the Direct bilirubin [4] was 0.29 mg/dL, the Hgb [4] was 9.80 g/dL and the LDH [4] was 1.0 ×ULN. For the same molecule, the Reticulocytes [4] was 250 10^9/μL, the Total bilirubin [4] was 1.24 mg/dL and the Direct bilirubin [5] was 0.18 mg/dL. The Hgb [5] was 11.8 g/dL, the LDH [5] was 0.8 ×ULN and the Reticulocytes [5] was 123 10^9/μL. For the same molecule, the Total bilirubin [5] was 0.89 mg/dL, the Direct bilirubin [6] was 0.20 mg/dL and the Hgb [6] was 13.3 g/dL. For the same molecule, the LDH [6] was 0.9 ×ULN, the Reticulocytes [6] was 162 10^9/μL and the Total bilirubin [6] was 0.81 mg/dL. For the same molecule, the Direct bilirubin [7] was 0.24 mg/dL, the Hgb [7] was 7.60 g/dL and the LDH [7] was 0.8 ×ULN. For the same molecule, the Reticulocytes [7] was 141 10^9/μL, the Total bilirubin [7] was 1.03 mg/dL and the Direct bilirubin [8] was 0.16 mg/dL. The Hgb [8] was 9.00 g/dL, the LDH [8] was 0.9 ×ULN and the Reticulocytes [8] was 97.0 10^9/μL. For the same molecule, the Total bilirubin [8] was 0.580 mg/dL, the Direct bilirubin [9] was 0.16 mg/dL and the Hgb [9] was 9.70 g/dL. The LDH [9] was 0.9 ×ULN, the Reticulocytes [9] was 87.0 10^9/μL and the Total bilirubin [9] was 0.580 mg/dL. It also gave a Direct bilirubin [10] of 0.43 mg/dL, a Hgb [10] of 10.4 g/dL and an LDH [10] of 1.1 ×ULN. For the same molecule, the Reticulocytes [10] was 191 10^9/μL, the Total bilirubin [10] was 2.26 mg/dL and the Direct bilirubin [11] was 0.15 mg/dL. The Hgb [11] was 11.7 g/dL, the LDH [11] was 1.2 ×ULN and the Reticulocytes [11] was 56.0 10^9/μL. The Total bilirubin [11] was 0.700 mg/dL, the Direct bilirubin [12] was 0.17 mg/dL and the Hgb [12] was 11.5 g/dL. For the same molecule, the LDH [12] was 0.9 ×ULN, the Reticulocytes [12] was 56.0 10^9/μL and the Total bilirubin [12] was 0.650 mg/dL. It also gave a Direct bilirubin [13] of 0.72 mg/dL, a Hgb [13] of 8.60 g/dL and an LDH [13] of 1.2 ×ULN. For the same molecule, the Reticulocytes [13] was 120 10^9/μL, the Total bilirubin [13] was 2.35 mg/dL and the Direct bilirubin [14] was 0.40 mg/dL. The Hgb [14] was 7.60 g/dL, the LDH [14] was 1.3 ×ULN and the Reticulocytes [14] was 179 10^9/μL. The Total bilirubin [14] was 2.22 mg/dL, the Direct bilirubin [15] was 0.60 mg/dL and the Hgb [15] was 9.40 g/dL. The LDH [15] was 1.2 ×ULN, the Reticulocytes [15] was 90.0 10^9/μL and the Total bilirubin [15] was 1.75 mg/dL. For the same molecule, the Direct bilirubin [16] was 0.82 mg/dL, the Hgb [16] was 7.20 g/dL and the LDH [16] was 0.9 ×ULN. The Reticulocytes [16] was 405 10^9/μL, the Total bilirubin [16] was 3.93 mg/dL and the Direct bilirubin [17] was 0.49 mg/dL. The Hgb [17] was 9.30 g/dL, the LDH [17] was 0.9 ×ULN and the Reticulocytes [17] was 243 10^9/μL. It also gave a Total bilirubin [17] of 1.50 mg/dL, a Direct bilirubin [18] of 0.78 mg/dL and a Hgb [18] of 10.6 g/dL. For the same molecule, the LDH [18] was 0.9 ×ULN, the Reticulocytes [18] was 253 10^9/μL and the Total bilirubin [18] was 2.95 mg/dL. It also gave a Direct bilirubin [19] of 0.39 mg/dL, a Hgb [19] of 7.10 g/dL and an LDH [19] of 0.6 ×ULN. For the same molecule, the Reticulocytes [19] was 262 10^9/μL, the Total bilirubin [19] was 1.20 mg/dL and the Direct bilirubin [20] was 0.50 mg/dL. For the same molecule, the Hgb [20] was 9.40 g/dL, the LDH [20] was 0.5 ×ULN and the Reticulocytes [20] was 200 10^9/μL. It also gave a Total bilirubin [20] of 1.90 mg/dL, a Direct bilirubin [21] of 0.39 mg/dL and a Hgb [21] of 9.10 g/dL. The LDH [21] was 0.9 ×ULN, the Reticulocytes [21] was 239 10^9/μL and the Total bilirubin [21] was 1.25 mg/dL. The Direct bilirubin [22] was 0.78 mg/dL, the Hgb [22] was 7.70 g/dL and the LDH [22] was 1.5 ×ULN. The Reticulocytes [22] was 238 10^9/μL, the Total bilirubin [22] was 2.18 mg/dL and the Direct bilirubin [23] was 0.53 mg/dL. For the same molecule, the Hgb [23] was 7.30 g/dL, the LDH [23] was 1.8 ×ULN and the Reticulocytes [23] was 206 10^9/μL. For the same molecule, the Total bilirubin [23] was 2.04 mg/dL, the Direct bilirubin [24] was 0.52 mg/dL and the Hgb [24] was 7.50 g/dL. The LDH [24] was 1.4 ×ULN, the Reticulocytes [24] was 169 10^9/μL and the Total bilirubin [24] was 1.57 mg/dL. For the same molecule, the Direct bilirubin [25] was 0.23 mg/dL, the Hgb [25] was 7.70 g/dL and the LDH [25] was 0.9 ×ULN. The Reticulocytes [25] was 200 10^9/μL, the Total bilirubin [25] was 0.56 mg/dL and the Direct bilirubin [26] was 0.18 mg/dL. The Hgb [26] was 10.8 g/dL, the LDH [26] was 0.9 ×ULN and the Reticulocytes [26] was 110 10^9/μL. For the same molecule, the Total bilirubin [26] was 0.34 mg/dL, the Direct bilirubin [27] was 0.18 mg/dL and the Hgb [27] was 11.5 g/dL. The LDH [27] was 0.9 ×ULN, the Reticulocytes [27] was 96 10^9/μL and the Total bilirubin [27] was 0.32 mg/dL. For the same molecule, the Direct bilirubin [28] was 0.68 mg/dL, the Hgb [28] was 7.80 g/dL and the LDH [28] was 1.3 ×ULN. For the same molecule, the Reticulocytes [28] was 258 10^9/μL, the Total bilirubin [28] was 3.24 mg/dL and the Hgb [29] was 10.2 g/dL. The Reticulocytes [29] was 292 10^9/μL, the Direct bilirubin [30] was 0.23 mg/dL and the Hgb [30] was 11.0 g/dL. For the same molecule, the LDH [30] was 1.2 ×ULN, the Reticulocytes [30] was 152 10^9/μL and the Total bilirubin [30] was 1.14 mg/dL. For the same molecule, the Direct bilirubin [31] was 0.64 mg/dL, the Hgb [31] was 8.40 g/dL and the LDH [31] was 0.9 ×ULN. The Reticulocytes [31] was 188 10^9/μL, the Total bilirubin [31] was 3.76 mg/dL and the Direct bilirubin [32] was 0.39 mg/dL. The Hgb [32] was 9.40 g/dL, the LDH [32] was 1.2 ×ULN and the Reticulocytes [32] was 88.0 10^9/μL. For the same molecule, the Total bilirubin [32] was 1.85 mg/dL, the Direct bilirubin [33] was 0.31 mg/dL and the Hgb [33] was 11.5 g/dL. For the same molecule, the LDH [33] was 1.1 ×ULN, the Reticulocytes [33] was 69.0 10^9/μL and the Total bilirubin [33] was 1.41 mg/dL. The raise in hemoglobin (addition of danicopan to eculizumab in patients that continued to be anemic) was “over 2 g/dL”, the “Direct bilirubin, mean” value [34] was 0.51 mg/dL and the “LDH, mean” value [34] was 1.06 ×ULN. The “Reticulocytes, mean” value [34] was 219 10^9/μL, the “Total bilirubin, mean” value [34] was 2.17 mg/dL and the “Direct bilirubin, mean” value [35] was 0.37 mg/dL. The “LDH, mean” value [35] was 1.04 ×ULN, the “Reticulocytes, mean” value [35] was 135 10^9/μL and the “Total bilirubin, mean” value [35] was 1.35 mg/dL. The “mean increase in Hgb” value (at 24 Weeks of treatment vs baseline, danicopan added to eculizumab) was 2.4 g/dL, the “mean increase in Hgb” value (danicopan added to background eculizumab) was 2.4 gram and the raise in hemoglobin (patient without transfusion history (Patient A), baseline 5 g/dL, at 24-weeks) was “over 3 g/dL”.
